Data as given in ChEMBL document CHEMBL1143347, “Carbonic anhydrase inhibitors: inhibition of the beta-class enzyme from the yeast Saccharomyces cerevisiae with sulfonamides and sulfamates” (Bioorg Med Chem, 2009).

biological target: T1, Carbonic anhydrase (Saccharomyces cerevisiae S288c, UniProt P53615)
T1 sequence (P53615 whole entry): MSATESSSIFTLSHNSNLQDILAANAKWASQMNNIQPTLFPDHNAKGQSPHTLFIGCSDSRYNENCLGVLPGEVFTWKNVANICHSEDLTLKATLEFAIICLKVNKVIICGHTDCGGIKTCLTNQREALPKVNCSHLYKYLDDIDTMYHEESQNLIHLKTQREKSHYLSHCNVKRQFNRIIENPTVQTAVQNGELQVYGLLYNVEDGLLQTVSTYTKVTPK
Description: Inhibition of Saccharomyces cerevisiae recombinant CA expressed in Escherichia coli by stopped-flow CO2 hydrase assay

Compound	Ki [nM]
Nc1cc(Cl)c(S(N)(=O)=O)cc1S(N)(=O)=O	169
Nc1ccc(S(N)(=O)=O)cc1I	976
NS(=O)(=O)c1ccc(CO)cc1	8970
NCCc1ccc(S(N)(=O)=O)cc1	163
Nc1ccc(S(N)(=O)=O)cc1Cl	457
Nc1ccc(S(=O)(=O)NCCc2ccc(S(N)(=O)=O)cc2)cc1	154
NS(=O)(=O)c1ccc(S(=O)(=O)Nc2cccc3c(Cl)c[nH]c23)cc1	133
NS(=O)(=O)c1nnc(NS(=O)(=O)c2ccccc2)s1 [BENZOLAMIDE]	111
Cc1ccc(-c2cc(C(F)(F)F)nn2-c2ccc(S(N)(=O)=O)cc2)cc1 [CELECOXIB]	108
NCc1ccc(S(N)(=O)=O)cc1 [MAFENIDE]	433
Cc1ccc(S(N)(=O)=O)cc1 [P-TOLUENESULFONAMIDE]	16100
Nc1ccc(S(N)(=O)=O)cc1 [SULFANILAMIDE]	18500
CC1(C)O[C@@H]2[C@@H](CO[C@@]3(COS(N)(=O)=O)OC(C)(C)O[C@@H]23)O1 [TOPIRAMATE]	110

Continued by falling Ki, values first:

Ki [nM]	Compound
14500	NS(=O)(=O)c1ccc(C(=O)O)cc1 [CARZENIDE]
12500	O=C1NS(=O)(=O)c2ccccc21 [SACCHARIN]
7540	NS(=O)(=O)c1ccc(CCO)cc1
565	NS(=O)(=O)c1nnc(-c2ccccc2Cl)s1
447	Nc1nnc(S(N)(=O)=O)s1
389	Nc1ccc(S(N)(=O)=O)cc1F
248	Nc1ccc(S(N)(=O)=O)cc1Br
223	Nc1cc(C(F)(F)F)c(S(N)(=O)=O)cc1S(N)(=O)=O [2,4-DISULFAMYLTRIFLUOROMETHYLANILINE]
166	Nc1ccc(S(=O)(=O)NCc2ccc(S(N)(=O)=O)cc2)cc1
124	Nc1ccc(S(=O)(=O)Nc2nnc(S(N)(=O)=O)s2)cc1
114	CCN[C@H]1CN(CCCOC)S(=O)(=O)c2sc(S(N)(=O)=O)cc21 [BRINZOLAMIDE]
15.1	Nc1nccc(Nc2ccc(S(N)(=O)=O)cc2)n1
